Measurements taken from patent US20250170090A1, “METHOD FOR PREVENTING OR TREATING DISEASE OR DISORDER ASSOCIATED WITH ANTINEOPLASTIC AGENT” (ONQUALITY PHARMACEUTICALS CHINA LTD., priority 2022, published 2025).
Like-named read-outs stand apart in the source and are kept apart here.

Tested on: HUVEC cells
Assay: CCK-8 cell viability: alleviation of proliferative toxicity of anti-tumor agents on HUVEC cells (Tables 7-1, 7-2)
Type: cell-based
Details: for activation at 100 µM: Homo sapiens, 24 h, percentage increase in viable cells vs anti-tumor agent alone, read-out: Response rate % (average)
Procedure: The cultured HUVEC cells were digested the suspended, counted, and seed into a 96-well plate with 5,000-10,000 cells per well. The wells are divided into the following groups: blank control group, anti-tumor agent group, anti-tumor agent+NO-NSAID group, anti-tumor agent solvent group, NO-NSAID control group. Wherein each well of each group contained a basic medium, and the final liquid volume contained in each well was about 100 μL. The grouping situation was as follows: • 1) Blank control group: no solution was added except normally replacing the medium; • 2) Anti-tumor agent group: added the anti-tumor agent solution (the final concentration was shown in Table 7-1 and Table 7-2, the solvent of the anti-tumor agent solution was DMSO); • 3) Anti-tumor agent+NO-NSAID group: added the anti-tumor agent solution and the NO-NSAID solution (the final concentrations of anti-tumor agent and NO-NSAID were shown in Table 7-1 and Table 7-2, and according to the solubility of NO-NSAID, the solvent of NO-NSAID solution was selected as ethanol or sterile water, and minor volume differences in each group were adjusted by added the corresponding solvent); • 4) Anti-tumor agent solvent group: an equal volume of DMSO as contained in the corresponding anti-tumor agent solution in Group 2) was added; • 5) NO-NSAID control group: the same volume and type of solvent (for example, ethanol or sterile water) corresponding to the NO-NSAID contained in group 3) was added.
The anti-tumor agent solvent group was not involved in data processing and was only used as a reference for evaluating experimental system error. The NO-NSAID solvent control group was used for data correction to eliminate the influence of the solvent on the results.
After culturing for 24-48 hours, the Cell Counting Kit-8 (CCK-8) detection kit (C0037, Shanghai Beyotime Biotechnology Co., Ltd., Beyotime Biotechnology) was used to determine the cell viability. This allows for the calculation of the proliferative toxicity of anti-tumor agent on cell and the mitigating effect of NO-NSAID on proliferative toxicity. The results were statistically analyzed and plotted using GraphPad Prism 6.0 software and t test.

[1] = Infigratinib (15 μM), NO-NSAID 100 μM
[2] = Lapatinib (5 μM), NO-NSAID 100 μM
[3] = Lenvatinib (10 μM), NO-NSAID 100 μM
[4] = Olmutinib (10 μM), NO-NSAID 100 μM
[5] = Regorafenib (5 μM), NO-NSAID 100 μM
[6] = Selumetinib (5 μM), NO-NSAID 100 μM
[7] = Sorafenib (5 μM), NO-NSAID 100 μM
[8] = Sunitinib (5 μM), NO-NSAID 100 μM

Work on `CC(=O)Oc1ccccc1C(=O)Oc1cccc(CO[N+](=O)[O-])c1` [Compound A2] yielded an activation at 100 µM (Encorafenib (5 μM), NO-NSAID 100 μM) of 76%, an activation at 100 µM (Erdafitinib (10 μM), NO-NSAID 100 μM) of 49% and an activation at 100 µM (Everolimus (5 μM), NO-NSAID 100 μM) of 33%. For the same compound, the activation at 100 µM (Famitinib (5 μM), NO-NSAID 100 μM) was 31%, the activation at 100 µM (Fruquintinib (10 μM), NO-NSAID 100 μM) was 41% and the activation at 100 µM (Gefitinib (10 μM), NO-NSAID 100 μM) was 76%. For the same compound, the activation at 100 µM [1] was 73%, the activation at 100 µM [2] was 16% and the activation at 100 µM [3] was 34%. It also gave an activation at 100 µM [4] of 33%, an activation at 100 µM [5] of 50% and an activation at 100 µM [6] of 83%. It also gave an activation at 100 µM [7] of 56%, an activation at 100 µM [8] of 65% and an activation at 100 µM (Vemurafenib (5 μM), NO-NSAID 100 μM) of 54%. The “NO-NSAID response rate % (average)” value (Infigratinib (15 μM), NO-NSAID 0.1 μM) was 30%, the “NO-NSAID response rate % (average)” value (Infigratinib (15 μM), NO-NSAID 1 μM) was 18% and the “NO-NSAID response rate % (average)” value [1] was 73%. For the same compound, the “NO-NSAID response rate % (average)” value (Infigratinib (15 μM), NO-NSAID 500 μM) was 17%, the “NO-NSAID response rate % (average)” value (Lapatinib (5 μM), NO-NSAID 0.1 μM) was 14% and the “NO-NSAID response rate % (average)” value (Lapatinib (5 μM), NO-NSAID 1 μM) was 32%. The “NO-NSAID response rate % (average)” value [2] was 16%, the “NO-NSAID response rate % (average)” value (Lapatinib (5 μM), NO-NSAID 500 μM) was 20% and the “NO-NSAID response rate % (average)” value (Lenvatinib (10 μM), NO-NSAID 0.1 μM) was 25%. For the same compound, the “NO-NSAID response rate % (average)” value (Lenvatinib (10 μM), NO-NSAID 1 μM) was 24%, the “NO-NSAID response rate % (average)” value [3] was 34% and the “NO-NSAID response rate % (average)” value (Lenvatinib (10 μM), NO-NSAID 500 μM) was 31%. The “NO-NSAID response rate % (average)” value (Olmutinib (10 μM), NO-NSAID 0.1 μM) was 24%, the “NO-NSAID response rate % (average)” value (Olmutinib (10 μM), NO-NSAID 1 μM) was 24% and the “NO-NSAID response rate % (average)” value [4] was 33%. The “NO-NSAID response rate % (average)” value (Olmutinib (10 μM), NO-NSAID 500 μM) was 23%, the “NO-NSAID response rate % (average)” value (Regorafenib (5 μM), NO-NSAID 0.1 μM) was 32% and the “NO-NSAID response rate % (average)” value (Regorafenib (5 μM), NO-NSAID 1 μM) was 30%. For the same compound, the “NO-NSAID response rate % (average)” value [5] was 50%, the “NO-NSAID response rate % (average)” value (Regorafenib (5 μM), NO-NSAID 500 μM) was 36% and the “NO-NSAID response rate % (average)” value (Selumetinib (5 μM), NO-NSAID 0.1 μM) was 34%. For the same compound, the “NO-NSAID response rate % (average)” value (Selumetinib (5 μM), NO-NSAID 1 μM) was 48%, the “NO-NSAID response rate % (average)” value [6] was 83% and the “NO-NSAID response rate % (average)” value (Selumetinib (5 μM), NO-NSAID 500 μM) was 30%. For the same compound, the “NO-NSAID response rate % (average)” value (Sorafenib (5 μM), NO-NSAID 0.1 μM) was 5%, the “NO-NSAID response rate % (average)” value (Sorafenib (5 μM), NO-NSAID 1 μM) was 20% and the “NO-NSAID response rate % (average)” value [7] was 56%. The “NO-NSAID response rate % (average)” value (Sorafenib (5 μM), NO-NSAID 500 μM) was 17%, the “NO-NSAID response rate % (average)” value (Sunitinib (5 μM), NO-NSAID 0.1 μM) was 13% and the “NO-NSAID response rate % (average)” value (Sunitinib (5 μM), NO-NSAID 1 μM) was 7%. For the same compound, the “NO-NSAID response rate % (average)” value [8] was 65% and the “NO-NSAID response rate % (average)” value (Sunitinib (5 μM), NO-NSAID 500 μM) was 2%.
